In ChEMBL document CHEMBL2440048 (J Med Chem, 2013):

Experiment: Inhibition of RyR2 R4496C mutant (unknown origin)-mediated store-overload induced calcium release expressed in HEK293 cells after 8 to 10 mins by fura-2/AM dye-based fluorescence assay
Type: cell-based
Details: Homo sapiens

In the case of `COc1ccccc1OCCNCC(O)COc1ccc2[nH]cnc2c1` (configuration not stated), the IC50 is reported as > 1 mM.

With `COc1ccc2c(c1)N(C)CCCS2` the IC50 was > 1 mM.
